Data on twelve molecules can be found in ChEMBL document CHEMBL3991601, “The target landscape of clinical kinase drugs” (Science, 2017).

Calls of active or inactive are those of the source. Cut-off read from the data, not from the text of the source, for most assays here: actives have a measured Kd and inactives only a lower limit. A value given as a limit tells only on which side of the number the result lay.

Experiment [1] concerns the target T1, ATP-dependent 6-phosphofructokinase, platelet type (Homo sapiens, UniProt Q01813).
T1 sequence (Q01813 whole entry): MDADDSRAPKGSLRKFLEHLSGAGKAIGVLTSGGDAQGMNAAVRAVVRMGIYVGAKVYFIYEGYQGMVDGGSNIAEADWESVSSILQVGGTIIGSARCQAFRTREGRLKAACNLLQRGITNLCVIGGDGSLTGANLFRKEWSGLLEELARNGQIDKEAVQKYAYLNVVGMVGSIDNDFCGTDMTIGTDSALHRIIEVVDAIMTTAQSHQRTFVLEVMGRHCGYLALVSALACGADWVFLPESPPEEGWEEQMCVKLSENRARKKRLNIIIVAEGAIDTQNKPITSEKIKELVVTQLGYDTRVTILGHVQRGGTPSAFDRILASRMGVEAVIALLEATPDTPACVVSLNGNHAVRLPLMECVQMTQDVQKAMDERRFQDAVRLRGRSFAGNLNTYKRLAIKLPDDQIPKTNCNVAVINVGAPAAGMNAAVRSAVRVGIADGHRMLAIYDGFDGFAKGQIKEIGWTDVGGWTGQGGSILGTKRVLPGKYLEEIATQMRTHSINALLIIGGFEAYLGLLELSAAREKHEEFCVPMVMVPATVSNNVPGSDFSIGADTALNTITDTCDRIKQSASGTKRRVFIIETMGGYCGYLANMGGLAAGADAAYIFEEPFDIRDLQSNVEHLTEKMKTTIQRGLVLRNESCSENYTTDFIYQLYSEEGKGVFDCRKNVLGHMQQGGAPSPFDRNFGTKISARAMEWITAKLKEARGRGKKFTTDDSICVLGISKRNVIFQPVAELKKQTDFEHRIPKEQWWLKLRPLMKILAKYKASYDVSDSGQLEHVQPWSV

For experiment [2], the target named is Fibroblast growth factor receptor 1 (Homo sapiens, UniProt P11362).
Experiment [3] has as its target T2, Cytochrome c1, heme protein, mitochondrial (Homo sapiens, UniProt P08574).
T2 sequence (P08574 whole entry): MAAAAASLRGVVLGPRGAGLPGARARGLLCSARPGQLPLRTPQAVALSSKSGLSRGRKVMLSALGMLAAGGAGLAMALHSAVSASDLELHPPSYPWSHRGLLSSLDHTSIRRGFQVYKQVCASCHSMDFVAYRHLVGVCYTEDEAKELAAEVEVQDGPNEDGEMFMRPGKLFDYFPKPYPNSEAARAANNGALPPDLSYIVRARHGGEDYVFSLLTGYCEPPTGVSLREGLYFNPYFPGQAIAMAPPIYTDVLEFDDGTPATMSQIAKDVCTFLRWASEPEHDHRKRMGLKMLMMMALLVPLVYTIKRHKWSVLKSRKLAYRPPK

In experiment [4] the target is Guanine nucleotide-binding protein G(i) subunit alpha-2 (Homo sapiens, UniProt P04899).
Experiment [5] addresses Calcium/calmodulin-dependent protein kinase kinase 2 (Homo sapiens, UniProt Q96RR4).
The target of experiment [6] is Cyclin-dependent kinase 1 (Homo sapiens, UniProt P06493).
The target of experiment [7] is T3, Phosphorylase b kinase gamma catalytic chain, liver/testis isoform (Homo sapiens, UniProt P15735).
T3 sequence (P15735 whole entry): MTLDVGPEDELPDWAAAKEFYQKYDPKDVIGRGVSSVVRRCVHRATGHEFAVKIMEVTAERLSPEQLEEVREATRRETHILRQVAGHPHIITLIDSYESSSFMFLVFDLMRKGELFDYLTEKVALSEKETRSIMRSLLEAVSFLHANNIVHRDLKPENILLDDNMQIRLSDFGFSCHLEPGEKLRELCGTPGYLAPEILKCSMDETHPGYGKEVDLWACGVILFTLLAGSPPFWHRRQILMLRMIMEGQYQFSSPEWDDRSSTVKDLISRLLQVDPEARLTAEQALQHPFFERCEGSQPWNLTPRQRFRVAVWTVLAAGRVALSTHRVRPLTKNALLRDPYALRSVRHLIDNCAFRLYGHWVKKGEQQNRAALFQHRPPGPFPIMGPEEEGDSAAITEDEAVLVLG

The target in experiment [8] is T4, Serine/threonine-protein kinase D2 (Homo sapiens, UniProt Q9BZL6).
T4 sequence (Q9BZL6 whole entry): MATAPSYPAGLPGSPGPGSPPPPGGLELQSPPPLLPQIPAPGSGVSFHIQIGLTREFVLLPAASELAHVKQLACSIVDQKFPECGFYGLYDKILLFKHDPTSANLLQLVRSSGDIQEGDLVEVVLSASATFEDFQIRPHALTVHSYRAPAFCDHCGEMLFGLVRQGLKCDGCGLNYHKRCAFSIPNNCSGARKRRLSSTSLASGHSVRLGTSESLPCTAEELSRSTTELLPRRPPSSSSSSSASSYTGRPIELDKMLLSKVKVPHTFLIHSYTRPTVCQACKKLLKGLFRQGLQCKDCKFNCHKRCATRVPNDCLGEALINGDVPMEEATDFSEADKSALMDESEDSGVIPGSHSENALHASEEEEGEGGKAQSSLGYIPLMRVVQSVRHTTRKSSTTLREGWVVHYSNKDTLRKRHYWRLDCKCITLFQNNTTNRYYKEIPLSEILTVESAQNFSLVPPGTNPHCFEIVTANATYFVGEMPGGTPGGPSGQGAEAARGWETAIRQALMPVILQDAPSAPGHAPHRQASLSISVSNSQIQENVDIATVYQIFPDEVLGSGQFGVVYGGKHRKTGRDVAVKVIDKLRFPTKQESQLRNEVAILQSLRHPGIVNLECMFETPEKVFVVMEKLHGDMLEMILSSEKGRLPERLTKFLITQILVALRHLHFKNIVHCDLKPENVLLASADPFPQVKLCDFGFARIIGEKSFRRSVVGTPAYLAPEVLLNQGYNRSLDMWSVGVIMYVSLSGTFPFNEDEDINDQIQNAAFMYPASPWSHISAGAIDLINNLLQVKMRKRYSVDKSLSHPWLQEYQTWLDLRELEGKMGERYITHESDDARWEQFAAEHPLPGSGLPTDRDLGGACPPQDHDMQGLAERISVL

The target of experiment [9] is Elongation factor Tu, mitochondrial (Homo sapiens, UniProt P49411).
Note: in the data inactive means no Kd found up to 30 µM.

Calcium/calmodulin-dependent protein kinase kinase 2, sequence (Q96RR4 whole entry): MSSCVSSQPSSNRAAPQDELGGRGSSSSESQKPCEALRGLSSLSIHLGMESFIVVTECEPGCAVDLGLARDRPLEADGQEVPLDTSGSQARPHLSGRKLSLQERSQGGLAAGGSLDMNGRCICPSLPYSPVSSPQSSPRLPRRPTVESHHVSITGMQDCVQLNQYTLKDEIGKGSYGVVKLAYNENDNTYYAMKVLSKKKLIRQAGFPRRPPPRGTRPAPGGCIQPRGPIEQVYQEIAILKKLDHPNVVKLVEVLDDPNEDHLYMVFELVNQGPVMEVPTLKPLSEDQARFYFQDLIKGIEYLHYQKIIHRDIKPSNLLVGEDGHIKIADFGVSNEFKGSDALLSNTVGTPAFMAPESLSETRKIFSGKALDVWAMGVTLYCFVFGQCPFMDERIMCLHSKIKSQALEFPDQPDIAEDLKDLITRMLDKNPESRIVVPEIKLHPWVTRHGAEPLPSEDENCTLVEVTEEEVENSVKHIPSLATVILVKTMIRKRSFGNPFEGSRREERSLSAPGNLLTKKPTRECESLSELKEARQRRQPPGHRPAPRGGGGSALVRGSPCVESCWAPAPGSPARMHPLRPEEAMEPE
Fibroblast growth factor receptor 1, sequence (P11362 whole entry): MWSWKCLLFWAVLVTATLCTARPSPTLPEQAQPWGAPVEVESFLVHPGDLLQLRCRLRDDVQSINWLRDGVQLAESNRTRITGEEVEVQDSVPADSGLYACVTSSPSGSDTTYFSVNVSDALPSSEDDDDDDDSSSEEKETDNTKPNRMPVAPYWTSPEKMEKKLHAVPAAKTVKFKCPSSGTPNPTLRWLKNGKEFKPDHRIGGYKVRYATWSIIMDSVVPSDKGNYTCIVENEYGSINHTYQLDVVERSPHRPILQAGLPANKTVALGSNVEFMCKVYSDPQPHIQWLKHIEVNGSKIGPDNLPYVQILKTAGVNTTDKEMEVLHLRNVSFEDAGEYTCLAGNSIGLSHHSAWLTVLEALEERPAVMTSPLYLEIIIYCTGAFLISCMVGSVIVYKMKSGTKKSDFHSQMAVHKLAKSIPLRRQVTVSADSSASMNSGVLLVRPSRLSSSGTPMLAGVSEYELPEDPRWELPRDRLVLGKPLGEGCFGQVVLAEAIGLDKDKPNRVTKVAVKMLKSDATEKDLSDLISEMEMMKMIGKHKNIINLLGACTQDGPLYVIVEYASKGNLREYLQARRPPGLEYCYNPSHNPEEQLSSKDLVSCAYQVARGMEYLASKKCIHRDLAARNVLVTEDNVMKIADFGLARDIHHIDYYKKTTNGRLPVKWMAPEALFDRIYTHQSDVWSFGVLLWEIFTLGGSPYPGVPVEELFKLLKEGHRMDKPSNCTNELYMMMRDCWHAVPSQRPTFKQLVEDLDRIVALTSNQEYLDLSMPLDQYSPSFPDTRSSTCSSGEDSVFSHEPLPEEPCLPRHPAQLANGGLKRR
Cyclin-dependent kinase 1, sequence (P06493 whole entry, canonical isoform): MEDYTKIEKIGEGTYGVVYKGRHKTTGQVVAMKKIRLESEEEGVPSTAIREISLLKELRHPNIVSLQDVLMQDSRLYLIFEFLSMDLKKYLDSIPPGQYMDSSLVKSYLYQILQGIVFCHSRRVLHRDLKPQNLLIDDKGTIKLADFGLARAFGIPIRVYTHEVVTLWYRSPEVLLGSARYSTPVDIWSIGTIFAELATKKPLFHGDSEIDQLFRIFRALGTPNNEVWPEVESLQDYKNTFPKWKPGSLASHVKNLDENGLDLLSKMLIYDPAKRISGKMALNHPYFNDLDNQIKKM
Guanine nucleotide-binding protein G(i) subunit alpha-2, sequence (P04899 whole entry): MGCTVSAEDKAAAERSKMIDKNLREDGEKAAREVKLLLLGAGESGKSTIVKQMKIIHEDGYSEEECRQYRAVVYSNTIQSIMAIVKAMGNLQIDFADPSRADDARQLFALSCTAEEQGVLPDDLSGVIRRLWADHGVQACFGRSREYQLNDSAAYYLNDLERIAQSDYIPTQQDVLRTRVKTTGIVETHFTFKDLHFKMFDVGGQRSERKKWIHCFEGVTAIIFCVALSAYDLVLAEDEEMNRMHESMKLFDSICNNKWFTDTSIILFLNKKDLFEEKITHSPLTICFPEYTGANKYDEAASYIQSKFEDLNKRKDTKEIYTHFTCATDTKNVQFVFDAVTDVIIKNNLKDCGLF

With `Cc1cc(Nc2nc(N[C@@H](C)c3ncc(F)cn3)ncc2Cl)n[nH]1` [AZD-1480], the Kd (in general, the concentration at which binding is half-saturated) in experiment [1] is > 30 µM (inactive); in experiment [2] it was 0.777 µM (active); in [3] it was > 30 µM (inactive); in experiment [4] it was > 30 µM (inactive); in experiment [5], > 30 µM (inactive); in [6], > 30 µM (inactive). Besides, the Kd in [7], in [8] and in [9] was > 30 µM (inactive) each time.
Turning to `C#Cc1cccc(Nc2ncnc3cc4c(cc23)OCCOCCOCCO4)c1` [ICOTINIB], the Kd in [1], in experiment [2], in experiment [3], in experiment [4], in experiment [5] and in experiment [6] was > 30 µM (inactive) throughout. For the same molecule, the Kd in [7], in experiment [8] and in experiment [9] was > 30 µM (inactive) in each case.
Take `COc1cc(F)c(F)c(Nc2ccc(I)cc2F)c1NS(=O)(=O)C1(C[C@H](O)CO)CC1` [REFAMETINIB]: the Kd in experiment [1], in experiment [2], in experiment [3], in experiment [4], in experiment [5] and in [6] was > 30 µM (inactive) in each case. In addition, the Kd in [7], in [8] and in [9] was > 30 µM (inactive) each time.
For `CCOc1ccn(-c2ccc(F)cc2)c(=O)c1C(=O)Nc1ccc(Oc2ccnc(N)c2Cl)c(F)c1` [BMS-777607], the Kd in experiment [1], in [2], in experiment [3], in experiment [4], in [5] and in experiment [6] was > 30 µM (inactive) each time. Further, the Kd in experiment [7], in experiment [8] and in experiment [9] was > 30 µM (inactive) in each case.
For the molecule `O[C@H]1CC[C@H](Nc2ncc3nc(Nc4c(F)cc(F)cc4F)n([C@H]4CCOC4)c3n2)CC1` [TANZISERTIB], the Kd in experiment [1], in experiment [2], in experiment [3], in experiment [4], in [5] and in experiment [6] was > 30 µM (inactive) throughout. Moreover, the Kd in experiment [7], in experiment [8] and in [9] was > 30 µM (inactive) throughout.
Turning to `COc1cc2ncnc3c2cc1OCCCCCN(C)Cc1ccc(Br)cc1N3` [JNJ-26483327], the Kd in experiment [1], in [2], in [3], in [4], in experiment [5] and in experiment [6] was > 30 µM (inactive) throughout. The Kd in [7], in [8] and in [9] was > 30 µM (inactive) throughout.
Regarding `CNC(=O)c1cccc(-c2ccc3c(N4CCOC[C@@H]4C)nc(N4CCOC[C@@H]4C)nc3n2)c1` [VISTUSERTIB], the Kd in experiment [1] is 0.983 µM (active); in [2], > 30 µM (inactive); in experiment [3] it was > 30 µM (inactive); in experiment [4] it was > 30 µM (inactive); in [5] it was > 30 µM (inactive); in experiment [6], > 30 µM (inactive). Further, the Kd in experiment [7], in experiment [8] and in [9] was > 30 µM (inactive) in each case.
Regarding `CC1(COc2ccc3c(c2)ncn3-c2ccc3cccc(N4CCC(N)CC4)c3n2)COC1` [CRENOLANIB], the Kd was > 30 µM (inactive) in experiment [1]; > 30 µM (inactive) in experiment [2]; > 30 µM (inactive) in [3]; > 30 µM (inactive) in [4]; 0.135 µM (active) in experiment [5]; 1.38 µM (active) in experiment [6]. Further, the Kd is 5.02 µM (active) in [7], > 30 µM (inactive) in [8] and > 30 µM (inactive) in experiment [9].
Regarding `CCN1CCN(Cc2ccc(Nc3ncc(F)c(-c4cc(F)c5nc(C)n(C(C)C)c5c4)n3)nc2)CC1` [ABEMACICLIB], the Kd was > 30 µM (inactive) in [1]; > 30 µM (inactive) in [2]; > 30 µM (inactive) in [3]; > 30 µM (inactive) in [4]; 2.6 µM (active) in [5]; > 30 µM (inactive) in experiment [7]. Moreover, the equilibrium dissociation constant (Kd) in experiment [8] was 2.06 µM (active); in experiment [9], > 30 µM (inactive).
As for `C=CCN(/C=C1/C(=O)O[C@H](COC)[C@@]2(C)C1=C(O)C(=O)C1=C2[C@H](OC(C)=O)C[C@]2(C)C(=O)CC[C@@H]12)CC=C` [SONOLISIB], the Kd in experiment [2], in [3], in experiment [4], in experiment [5], in [6] and in experiment [7] was > 30 µM (inactive) each time. Further, the Kd in experiment [8] and in experiment [9] was > 30 µM (inactive) each time.
As to `CN1CCN(c2nc(C3=C(c4c[nH]c5ccccc45)C(=O)NC3=O)c3ccccc3n2)CC1` [SOTRASTAURIN], the Kd in experiment [1], in [2], in experiment [3], in experiment [4], in [5] and in [7] was > 30 µM (inactive) each time. Besides, the Kd in [8] and in [9] was > 30 µM (inactive) in each case.
`COc1ccc2c(OCc3nnc4ccc(-c5ccccc5)nn34)ccnc2c1` [AMG-208]: the Kd in [2], in experiment [3], in experiment [4], in experiment [5], in [6] and in [7] was > 30 µM (inactive) each time. For the same molecule, the Kd in [8] and in experiment [9] was > 30 µM (inactive) throughout.
